Test results: US9422240B2, “Partially saturated nitrogen-containing heterocyclic compound” (TAISHO PHARMACEUTICAL CO., LTD, priority 2012, dated 2016)

Key:
human PHD2 [1] = target: T1, human PHD2 (Homo sapiens (Human), UniProt Q9GZT9); assay: Test 2: human PHD2 inhibitory activity, fluorescence polarization assay of HIF-1α peptide proline hydroxylation; type: biochemical; settings: test compound's concentration 1 μM; Test 2, fluorescence polarization assay; read-out: Percent inhibition (% at 1 μM)
T1 sequence (Q9GZT9 whole entry): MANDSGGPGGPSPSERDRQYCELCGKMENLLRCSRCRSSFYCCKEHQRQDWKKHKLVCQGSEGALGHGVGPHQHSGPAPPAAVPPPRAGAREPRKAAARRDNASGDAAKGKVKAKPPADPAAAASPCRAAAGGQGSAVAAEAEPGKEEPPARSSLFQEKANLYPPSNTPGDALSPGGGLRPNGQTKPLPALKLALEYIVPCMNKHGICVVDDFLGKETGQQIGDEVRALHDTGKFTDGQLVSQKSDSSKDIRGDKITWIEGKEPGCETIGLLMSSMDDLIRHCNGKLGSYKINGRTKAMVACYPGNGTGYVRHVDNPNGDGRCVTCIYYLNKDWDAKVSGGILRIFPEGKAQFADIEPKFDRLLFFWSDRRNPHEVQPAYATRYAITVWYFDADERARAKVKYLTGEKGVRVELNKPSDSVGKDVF
Method in brief: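 A 19-mer HIF-1α peptide served as substrate, with the reaction started by 40 ng/well human PHD2 (cell lysate of NM_022051-transfected cells) and run 20 min at 30° C. before EDTA stop. Hydroxylated product bound anti-HIF-OH antibody, read by fluorescence polarization versus no-compound control.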

human PHD2 [2] = target: T1, human PHD2; assay: Test 1: human PHD2 inhibitory activity, [14C]-2-oxoglutarate to [14C]-succinic acid radiometric assay with HIF-1α peptide; type: biochemical; settings: test compound's concentration 1 μM; Test 1, [14C]-2-oxoglutarate radiometric assay; read-out: Percent inhibition (% at 1 μM)
Procedure: (1) Expression and Preparation of Human PHD2
Human PHD2 was expressed in insect cells (HighFive cells). A registered sequence of human PHD2 (NM_022051) was introduced into the pFastBacl vector (Invitrogen), and the sequence was verified. The vector was introduced into Sf9 insect cells (Invitrogen) to acquire human PHD2 baculovirus. HighFive insect cells (Invitrogen) were infected with this recombinant virus and cultured at 27° C. for 72 hours; thereafter, a cell lysis solution containing various protease inhibitors was added and the cells were disrupted to form a suspension. The suspension of disrupted cells was centrifuged at 4° C. and 100,000×g for 30 minutes and the supernatant was recovered as a cell lysate.
(2) Measurement of Human PHD2 Inhibitory Activity
The activity of human PHD2 enzyme was measured with a substrate which is a 19-residue partial peptide based on the sequence of HIF-1α. Specifically, the conversion of 2-oxoglutarate to succinic acid which would occur simultaneously with the hydroxylation of a proline residue in the peptide with the PHD2 enzyme was utilized. To be more specific, [^14C]-2-oxogiutarate was added to the reaction system to initiate an enzymatic reaction and the [^14C]-2-oxoglutarate remaining after the reaction was bound to 2,4-dinitrophenylhydrazine (DNPH), with the resulting precipitate being removed by passage through a filter. Subsequently, radiation counting was conducted on the resulting [^14C]-succinic acid.
A test compound, HIF-1αpeptide and [^14C]-2-oxoglutarate were preliminarily added onto 96-well plates and reaction was initiated by adding a human PHD2 enzyme solution (4 μg/well). After 15-min incubation at 37° C., a DNPH-containing quench solution was added and the mixture was allowed to stand at room temperature for 30 minutes. Thereafter, an excess of non-radiolabelled 2-oxoglutarate was added and the mixture was allowed to stand at room temperature for 60 minutes. The resulting precipitate was removed by passage through a filter and the radiation count on the [^14C]-succinic acid was quantified (with MicroBeta). Radiation counting was conducted for each well and the human PHD2 inhibitory activity of each test compound was calculated on the basis of the values for the substrate-free group and the test compound-free group.

Row | inhibition at 1 µM (human PHD2 [1]) [%] | inhibition at 1 µM (human PHD2 [2]) [%] | Compound
1 | 84 | 54 | O=C(O)CNC(=O)C1=C(O)CC(Cc2ccccc2)N(Cc2ccc(-c3ccccc3)cc2)C1=O (stereo not shown) [Ex. 1-75]
2 | 79 | 40 | O=C(O)CNC(=O)C1=C(O)CC(CCc2ccccc2)N(Cc2ccc(-c3ccccc3)cc2)C1=O (stereo not shown) [Ex. 1-76]
3 | 85 | 74 | CC1CC(O)=C(C(=O)NCC(=O)O)C(=O)N1Cc1ccc(-c2ccccn2)cc1 (stereo not shown) [Ex. 1-77]
4 | 78 | 70 | CC1CC(O)=C(C(=O)NCC(=O)O)C(=O)N1Cc1ccc(C(F)(F)F)cc1 (stereo not shown) [Ex. 1-78]
5 | 71 | 64 | Cc1ccc(CN2C(=O)C(C(=O)NCC(=O)O)=C(O)CC2C)cc1 (stereo not shown) [Ex. 1-79]
6 | 88 | 76 | CC1CC(O)=C(C(=O)NCC(=O)O)C(=O)N1CC1CCC(c2ccccc2)CC1 (stereo not shown) [Ex. 1-80]
7 | 64 | 72 | O=C(O)CNC(=O)C1=C(O)CC(C(F)(F)F)N(Cc2ccc(-c3ccccc3)cc2)C1=O (stereo not shown) [Ex. 1-81]
8 | 77 | 51 | O=C(O)CNC(=O)C1=C(O)C2(CCCCC2)CN(Cc2ccc(C(F)(F)F)cc2)C1=O [Ex. 1-82]
9 | 73 | 54 | O=C(O)CNC(=O)C1=C(O)C2(CCC2)CN(Cc2ccc(C(F)(F)F)cc2)C1=O [Ex. 1-83]
10 | 67 | 42 | Cc1ccc(CN2C(=O)C(C(=O)NCC(=O)O)=C(O)CC23CCCCC3)cc1 [Ex. 1-84]
11 | 65 | 61 | CC1(C)CC(O)=C(C(=O)NCC(=O)O)C(=O)N1Cc1ccc(C(F)(F)F)cc1 [Ex. 1-85]
12 | 71 | 48 | Cc1ccc(CN2CC3(CCCCC3)C(O)=C(C(=O)NCC(=O)O)C2=O)cc1 [Ex. 1-86]
13 | 86 | 46 | CC(C)(C)c1ccc(-c2ccc(CN3C(=O)C(C(=O)NCC(=O)O)=C(O)CC34CCOCC4)cc2)cc1 [Ex. 1-87]
14 | 55 | 44 | Cc1ccc(CN2C(=O)C(C(=O)NCC(=O)O)=C(O)CC2(C)C)cc1 [Ex. 1-88]
15 | 72 | 69 | Cc1ccc(CN2CC3(CCOCC3)C(O)=C(C(=O)NCC(=O)O)C2=O)cc1 [Ex. 1-89]
16 | 63 | 58 | Cc1ccc(CN2CC3(CCC3)C(O)=C(C(=O)NCC(=O)O)C2=O)cc1 [Ex. 1-90]
17 | 94 | 85 | O=C(O)CNC(=O)C1=C(O)C2(CCCCC2)CN(Cc2cnc(-c3ccccc3)s2)C1=O [Ex. 1-91]
18 | 66 | 69 | Cc1ccc(CN2CC(C)C(O)=C(C(=O)NCC(=O)O)C2=O)cc1 (stereo not shown) [Ex. 1-92]
19 | 81 | 80 | CC1CN(Cc2ccc(-c3ccccn3)cc2)C(=O)C(C(=O)NCC(=O)O)=C1O (stereo not shown) [Ex. 1-93]
20 | 92 | 84 | CC1CC(O)=C(C(=O)NCC(=O)O)C(=O)N1Cc1cnc(-c2ccccc2)s1 (stereo not shown) [Ex. 1-94]
21 | 91 | 85 | O=C(O)CNC(=O)C1=C(O)C2(CCC2)CN(Cc2cnc(-c3ccccc3)s2)C1=O [Ex. 1-95]
22 | 86 | 82 | CC1(C)CC(O)=C(C(=O)NCC(=O)O)C(=O)N1Cc1cnc(-c2ccccc2)s1 [Ex. 1-96]
23 | 91 | 89 | O=C(O)CNC(=O)C1=C(O)C2(CCOCC2)CN(Cc2cnc(-c3ccccc3)s2)C1=O [Ex. 1-97]
24 | 88 | 88 | O=C(O)CNC(=O)C1=C(O)CC2(CCOCC2)N(Cc2cnc(-c3ccccc3)s2)C1=O [Ex. 1-98]
25 | 92 | 71 | O=C(O)CNC(=O)C1=C(O)CC2(CCOCC2)N(CC2CCC(c3ccccc3)CC2)C1=O (stereo not shown) [Ex. 1-99]
26 | 84 | 64 | CC1CC(O)=C(C(=O)NCC(=O)O)C(=O)N1Cc1ccc(-c2ccc(C(F)(F)F)cc2)cc1 (stereo not shown) [Ex. 1-100]
27 | 86 | 60 | O=C(O)CNC(=O)C1=C(O)C2(CCCCC2)CN(Cc2ccc(-c3ccccn3)cc2)C1=O [Ex. 1-101]

Row | inhibition at 1 µM (human PHD2 [1]) [%] | inhibition at 1 µM (human PHD2 [2]) [%] | Compound
28 | 83 | 67 | O=C(O)CNC(=O)C1=C(O)C2(CCC2)CN(Cc2ccc(-c3ccccn3)cc2)C1=O [Ex. 1-102]
29 | 82 | 76 | CC1CN(Cc2ccc(C(F)(F)F)cc2)C(=O)C(C(=O)NCC(=O)O)=C1O (stereo not shown) [Ex. 1-103]
30 | 94 | 87 | CC1CN(Cc2cnc(-c3ccccc3)s2)C(=O)C(C(=O)NCC(=O)O)=C1O (stereo not shown) [Ex. 1-104]
31 | 83 | 78 | O=C(O)CNC(=O)C1=C(O)CC2(CCOCC2)N(Cc2ccc(-c3ccccn3)cc2)C1=O [Ex. 1-105]
32 | 72 | 66 | O=C(O)CNC(=O)C1=C(O)CC2(CCOCC2)N(Cc2ccc(C(F)(F)F)cc2)C1=O [Ex. 1-106]
33 | 90 | 67 | CC1CN(CC2CCC(c3ccccc3)CC2)C(=O)C(C(=O)NCC(=O)O)=C1O (stereo not shown) [Ex. 1-107]
34 | 87 | 60 | CC1CN(Cc2ccc(-c3ccc(C(F)(F)F)cc3)cc2)C(=O)C(C(=O)NCC(=O)O)=C1O (stereo not shown) [Ex. 1-108]
35 | 77 | 70 | CC1(C)CC(O)=C(C(=O)NCC(=O)O)C(=O)N1Cc1ccc(-c2ccccn2)cc1 [Ex. 1-109]
36 | 84 | 82 | O=C(O)CNC(=O)C1=C(O)C2(CCOCC2)CN(Cc2ccc(-c3ccccn3)cc2)C1=O [Ex. 1-110]
37 | 80 | 68 | O=C(O)CNC(=O)C1=C(O)CC2(CCCCC2)N(Cc2ccc(-c3ccccn3)cc2)C1=O [Ex. 1-111]
38 | 90 | 68 | O=C(O)CNC(=O)C1=C(O)CC2(CCCCC2)N(Cc2cnc(-c3ccccc3)s2)C1=O [Ex. 1-112]
39 | 84 | 79 | O=C(O)CNC(=O)C1=C(O)CCN(Cc2ccc(C(F)(F)F)c(F)c2)C1=O [Ex. 1-113]
40 | 83 | 36 | O=C(O)CNC(=O)C1=C(O)C2(CCC2)CN(CC2CCC(c3ccccc3)CC2)C1=O (stereo not shown) [Ex. 1-114]
41 | 83 | 49 | CC1(C)CC(O)=C(C(=O)NCC(=O)O)C(=O)N1CC1CCC(c2ccccc2)CC1 (stereo not shown) [Ex. 1-115]
42 | 92 | 83 | O=C(O)CNC(=O)C1=C(O)C2(CCOCC2)CN(CC2CCC(c3ccccc3)CC2)C1=O (stereo not shown) [Ex. 1-117]
43 | 87 | 77 | CC1(C)CC(O)=C(C(=O)NCC(=O)O)C(=O)N1Cc1ccc(-c2ccc(C(F)(F)F)cc2)cc1 [Ex. 1-118]
44 | 84 | 85 | O=C(O)CNC(=O)C1=C(O)C2(CCOCC2)CN(Cc2ccc(-c3ccc(C(F)(F)F)cc3)cc2)C1=O [Ex. 1-119]
45 | 82 | 69 | O=C(O)CNC(=O)C1=C(O)CCN(Cc2ccc(C(F)(F)F)c(C(F)(F)F)c2)C1=O [Ex. 1-120]
46 | 71 | 66 | Cc1ccc(CN2C(=O)C(C(=O)NCC(=O)O)=C(O)CC23CCC3)cc1 [Ex. 1-121]
47 | 76 | 65 | O=C(O)CNC(=O)C1=C(O)CC2(CCC2)N(Cc2ccc(C(F)(F)F)cc2)C1=O [Ex. 1-122]
48 | 93 | 90 | O=C(O)CNC(=O)C1=C(O)CC2(COC2)N(Cc2cnc(-c3ccccc3)s2)C1=O [Ex. 1-123]
49 | 79 | 72 | O=C(O)CNC(=O)C1=C(O)CC2(COC2)N(Cc2ccc(C(F)(F)F)cc2)C1=O [Ex. 1-124]
50 | 97 | 98 | O=C(O)CNC(=O)C1=C(O)CCN(Cc2ccc(-c3ccccc3)c(F)c2)C1=O [Ex. 1-125]
51 | 98 | 97 | O=C(O)CNC(=O)C1=C(O)CCN(Cc2ccc(-c3ccc(F)cc3)cc2F)C1=O [Ex. 1-126]
52 | 95 | 92 | O=C(O)CNC(=O)C1=C(O)CCN(Cc2ccc(-c3ccccc3)cc2F)C1=O [Ex. 1-127]
53 | 84 | 88 | O=C(O)CNC(=O)C1=C(O)CCN(Cc2ccc(C(F)(F)F)c(Cl)c2)C1=O [Ex. 1-128]
